Assays:
[1] = molecular target: T1, Estrogen receptor (Mus musculus) (UniProt O08537+P19785); test: Inhibition of estradiol-induced uterine weight gain in ovariectomized BALB/c mice at 3 ug dose twice daily; assay type: functional
[2] = molecular target: T1, Estrogen receptor (Mus musculus); test: Inhibition of estradiol-induced uterine weight gain in ovariectomized BALB/c mice at 20 ug dose twice daily; assay type: functional

T1 sequence (O08537 whole entry, looked up): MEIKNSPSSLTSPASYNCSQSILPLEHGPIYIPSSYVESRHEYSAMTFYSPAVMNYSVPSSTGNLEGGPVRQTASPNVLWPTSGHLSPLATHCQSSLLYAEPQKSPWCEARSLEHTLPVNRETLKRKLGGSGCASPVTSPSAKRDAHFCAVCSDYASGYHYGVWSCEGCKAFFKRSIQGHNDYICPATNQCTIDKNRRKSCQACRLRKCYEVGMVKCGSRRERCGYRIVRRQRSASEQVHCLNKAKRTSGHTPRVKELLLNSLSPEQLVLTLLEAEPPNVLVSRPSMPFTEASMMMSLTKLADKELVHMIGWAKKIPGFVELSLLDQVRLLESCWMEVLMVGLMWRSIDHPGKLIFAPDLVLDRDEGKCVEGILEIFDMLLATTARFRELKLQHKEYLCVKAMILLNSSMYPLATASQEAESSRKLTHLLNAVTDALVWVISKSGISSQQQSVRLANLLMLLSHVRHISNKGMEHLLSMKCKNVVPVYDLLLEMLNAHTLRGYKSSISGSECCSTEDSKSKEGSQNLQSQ
T1 sequence (P19785 whole entry, looked up): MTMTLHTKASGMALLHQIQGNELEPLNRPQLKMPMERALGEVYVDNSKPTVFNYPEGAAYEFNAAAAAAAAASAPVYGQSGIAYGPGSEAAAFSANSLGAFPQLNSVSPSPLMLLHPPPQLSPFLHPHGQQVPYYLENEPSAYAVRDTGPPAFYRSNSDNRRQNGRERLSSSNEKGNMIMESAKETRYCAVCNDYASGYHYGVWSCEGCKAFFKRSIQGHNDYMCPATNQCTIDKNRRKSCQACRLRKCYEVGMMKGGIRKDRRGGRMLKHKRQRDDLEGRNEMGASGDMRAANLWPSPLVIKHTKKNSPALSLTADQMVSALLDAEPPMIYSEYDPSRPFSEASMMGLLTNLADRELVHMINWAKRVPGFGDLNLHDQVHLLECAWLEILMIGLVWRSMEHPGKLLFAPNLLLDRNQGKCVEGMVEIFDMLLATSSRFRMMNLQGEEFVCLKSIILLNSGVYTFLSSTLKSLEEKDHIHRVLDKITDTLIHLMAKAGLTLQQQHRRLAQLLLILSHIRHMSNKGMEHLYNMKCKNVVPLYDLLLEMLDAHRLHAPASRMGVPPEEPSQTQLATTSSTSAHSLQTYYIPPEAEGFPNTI

Row | Structure (SMILES) | inhibition [1] [%] | inhibition [2] [%]
1 | CCCCN(C)C(=O)CCCCCCCCCC[C@@H]1Cc2cc(O)ccc2[C@H]2CC[C@]3(C)[C@@H](O)[C@H](Cl)C[C@H]3[C@H]12 | 74 | –
2 | CCCCN(C)C(=O)CCCCCCCCCC[C@@H]1Cc2cc(O)ccc2[C@H]2CC[C@]3(C)[C@H](O)[C@H](Br)C[C@H]3[C@H]12 | 60 | 78
3 | CCCCN(C)C(=O)CCCCCCCCCC[C@@H]1Cc2cc(O)ccc2[C@H]2CC[C@]3(C)[C@@H](O)CC[C@H]3[C@H]12 | 40 | –
4 | CCCCN(C)C(=O)CCCCCCCCCC[C@@H]1Cc2cc(O)ccc2[C@H]2CC[C@]3(C)[C@H](O)[C@H](Cl)C[C@H]3[C@H]12 | 35 | –
5 | CCCCN(C)C(=O)CCCCCCCCCC[C@@H]1Cc2cc(O)ccc2[C@H]2CC[C@]3(C)[C@@H](O)[C@H](I)C[C@H]3[C@H]12 | 63 | –
6 | CCCCN(C)C(=O)CCCCCCCCCC[C@@H]1Cc2cc(O)ccc2[C@H]2CC[C@]3(C)[C@@H](O)[C@H](Br)C[C@H]3[C@H]12 | 52 | 79

Reference: ChEMBL document CHEMBL1125693, “Synthesis and biological activity of new halo-steroidal antiestrogens” (J Med Chem, 1991)
